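Protocol summary: plate cells (96-well), add compound at 5 concentrations, incubate 48 h, interpolate endpoints linearly. TGI: concentration producing complete growth inhibition.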
Experiments:
Assay in all cases: NCI anticancer screen, dose series, 48 h
EKVX NSCLC = system: EKVX NSCLC
OVCAR-5 ovarian = system: OVCAR-5 ovarian
SF-268 CNS = system: SF-268 CNS
NCI-H23 lung = system: NCI-H23 lung
MOLT-4 leukemia = system: MOLT-4 leukemia
UO-31 renal = system: UO-31 renal
LOX IMVI melanoma = system: LOX IMVI melanoma
786-0 renal = system: 786-0 renal
K-562 leukemia = system: K-562 leukemia
COLO 205 colon = system: COLO 205 colon
RPMI-8226 leukemia = system: RPMI-8226 leukemia
U251 CNS = system: U251 CNS
MDA-MB-231 breast = system: MDA-MB-231 breast
MCF7 breast = system: MCF7 breast
SNB-19 CNS = system: SNB-19 CNS
OVCAR-4 ovarian = system: OVCAR-4 ovarian
A498 renal = system: A498 renal
HS 578T breast = system: HS 578T breast
BT-549 breast = system: BT-549 breast

Measured: TGI

C/C(CC(=O)Nc1cc(C)ccc1C)=N\NC(=O)c1ccncc1
not listed: MDA-MB-231 breast | MCF7 breast | SNB-19 CNS | OVCAR-4 ovarian | A498 renal | HS 578T breast | BT-549 breast
> 100 µM: all other assays above

COC(=O)/C=C(/C=C1/C(C#N)=C(N)N(c2ccc(Cl)cc2)C1(C)/C(=C/C(=O)OC)C(=O)OC)C(=O)OC (centres undefined)
50.5 µM: K-562 leukemia
84.6 µM: LOX IMVI melanoma
not listed: HS 578T breast | BT-549 breast
> 100 µM: all other assays above

CCOCc1c(C)cc(C)c(C2C(C(=O)c3ccccc3)N3c4ccccc4C=CC3C2(C#N)C(=O)OCC)c1C (centres undefined)
67.3 µM: EKVX NSCLC
53.7 µM: COLO 205 colon
75.8 µM: BT-549 breast
not listed: MDA-MB-231 breast
> 100 µM: all other assays above

O/N=C/c1ncccc1C1OCCO1
not listed: RPMI-8226 leukemia | MDA-MB-231 breast | MCF7 breast | A498 renal | HS 578T breast | BT-549 breast
> 100 µM: all other assays above

Cc1ccc(NC(=O)CC(=O)n2nc(C)c(N=Nc3ccccc3C(=O)O)c2C)cc1
not listed: MDA-MB-231 breast | MCF7 breast | HS 578T breast | BT-549 breast
> 100 µM: all other assays above

Cc1c(C)c(C)n(C2OC(CO)C(O)C(O)C2O)c(=S)c1C#N (centres undefined)
not listed: RPMI-8226 leukemia | HS 578T breast | BT-549 breast
> 100 µM: all other assays above

O=C(NC12CC3CC(CC(F)(C3)C1)C2)c1ccccc1
not listed: SF-268 CNS | MDA-MB-231 breast | MCF7 breast | OVCAR-4 ovarian | HS 578T breast | BT-549 breast
> 100 µM: all other assays above

N#CC12CNCC1CN=N2 (centres undefined)
not listed: RPMI-8226 leukemia | HS 578T breast
> 100 µM: all other assays above

CCC(C)(C)C1CCC2c3c([nH]c4ccccc34)C3C(=O)N(c4ccc(OC)cc4)C(=O)C3C2C1 (centres undefined)
> 100 µM: EKVX NSCLC | OVCAR-4 ovarian | UO-31 renal | K-562 leukemia
35.1 µM: NCI-H23 lung
32.3 µM: MDA-MB-231 breast
22.6 µM: MCF7 breast
23.7 µM: LOX IMVI melanoma
43.6 µM: SF-268 CNS
86.2 µM: SNB-19 CNS
25.9 µM: 786-0 renal
24.7 µM: COLO 205 colon
42.6 µM: BT-549 breast
45.6 µM: OVCAR-5 ovarian
60.8 µM: MOLT-4 leukemia
54.8 µM: U251 CNS

O=C1c2ccccc2C(=O)c2c1cc(S(=O)(=O)O)c(O)c2O
not listed: MDA-MB-231 breast | MCF7 breast | SNB-19 CNS | HS 578T breast | BT-549 breast
> 100 µM: all other assays above

Nc1nc(Cl)c(CO)c(NCC2(CO)CC(CCc3ccccc3)C2)n1 (centres undefined)
14.7 µM: MOLT-4 leukemia
45.5 µM: MCF7 breast
71.1 µM: BT-549 breast
39.1 µM: MDA-MB-231 breast
37.5 µM: NCI-H23 lung
68.8 µM: UO-31 renal
50.4 µM: LOX IMVI melanoma
43.1 µM: K-562 leukemia
54.9 µM: OVCAR-4 ovarian
35.2 µM: RPMI-8226 leukemia
not listed: HS 578T breast
> 100 µM: all other assays above

NC(=S)N1N=C2c3ccccc3CC[C@@H]2[C@@H]1c1ccccc1
> 49.1 µM: K-562 leukemia
19 µM: NCI-H23 lung
49.5 µM: SF-268 CNS
16.8 µM: COLO 205 colon
21.6 µM: U251 CNS
32.9 µM: RPMI-8226 leukemia
> 81.8 µM: EKVX NSCLC
> 94.6 µM: UO-31 renal
20.1 µM: LOX IMVI melanoma
50.5 µM: 786-0 renal
> 100 µM: SNB-19 CNS | OVCAR-4 ovarian
> 83.8 µM: A498 renal
48 µM: MOLT-4 leukemia
99.9 µM: OVCAR-5 ovarian

CC1OC(OC2C(OC(=O)[C@]34CCC(C)(C)CC3C3=CCC5[C@@]6(C)C[C@H](O)[C@H](OC7OC(CO)C(O)C(O)C7N)[C@@](C)(C(=O)O)C6CC[C@@]5(C)C3(C)CC4)OCC(O)C2O)C(O)C(O)C1OC1OCC(O)C(O)C1O (some centres undefined)
not listed: MDA-MB-231 breast | MCF7 breast | OVCAR-4 ovarian | HS 578T breast | BT-549 breast
> 100 µM: all other assays above

O=C1c2[nH]c3ccc(Br)cc3c2CCN1Cc1ccc(Cl)cc1
25.9 µM: LOX IMVI melanoma
32.7 µM: SNB-19 CNS
26.2 µM: OVCAR-5 ovarian
28.7 µM: MDA-MB-231 breast
31.1 µM: UO-31 renal
43.3 µM: HS 578T breast
34.3 µM: OVCAR-4 ovarian
> 100 µM: EKVX NSCLC | K-562 leukemia
34.5 µM: COLO 205 colon
35.7 µM: MCF7 breast
24.1 µM: 786-0 renal
34.1 µM: A498 renal
26.8 µM: U251 CNS
32.3 µM: NCI-H23 lung
33.2 µM: SF-268 CNS

CCOC(=O)/C(=C\c1ccccc1)C(=O)O
not listed: MDA-MB-231 breast | MCF7 breast | HS 578T breast | BT-549 breast
> 100 µM: all other assays above

From PubChem BioAssay (NCI)
